How the values were obtained:
Assay type in all cases: physicochemical
Solubility test in water = details: purified water, room temperature, stirred 2 hours
Protocol: The excess crystals were dissolved in an amount of purified water in a 4 ml vial at room temperature. The mass of an empty watch glass was recorded as m1.
The suspension was stirred for 2 hours and then filtered through a […] into an empty watch glass, the mass m2 at this point was recorded for this watch glass, and the remaining solid was used for XRPD analysis.
The watch glass containing the filtrate was dried in an oven at 40° C. After drying, the mass m3 was recorded and the solubility data of the substrate could be calculated. The masses of the watch glass as well as the amounts of solid and solution are listed in Table 6, and the experimental results are shown in Table 7 and FIG. 12.

[1] = Dynamic vapor sorption (DVS); details: for DVS weight gain at an RH of 80%: RH 80%, 25±1° C.; for Mass change (%) - ref, Delay: desorption minus sorption
Protocol: DVS: Samples were analyzed using an Intrinsic DVS ([…] UK). The amount of test sample was about 20-30 mg. The temperature of the test chamber was controlled between 25±1° C., the relative humidity was increased from 0% to 90% and then decreased to 0% at a rate of 10%/h, and the quality data was recorded every 20 s.

[2] = Thermogravimetric analysis (TGA); details: heated at 10° C./min under nitrogen
Protocol: TGA: Samples were analyzed using a TA Instruments TGA Discovery 550. The sample were placed in a tared aluminum tray and automatically weighed, and then the samples were brought to the specified temperatures at a rate of 10° C./min under the protection of nitrogen. In the present invention, the TGA graphs of the above three samples are illustrated in the form of overlay, as shown in FIG. 5.

[3] = Solubility in buffer of crystalline form I
From the text: The solubility of crystalline form I of the present invention was investigated at room temperature in buffers at pH 1.2, 4.5 and 6.8. The procedure was consistent with that of the solubility test in water. The masses of the watch glass as well as the amounts of solid and solution are listed in Table 8, and the experimental results are shown in Table 9.

[4] = Stability test (crystalline form by XRPD); details: one week
Protocol: 10 mg of the solid was placed into a 2 ml glass vial and the vial was transferred to a stability chamber. The experimental conditions were 25° C./92.5% RH, 40° C./75% RH, 60° C., and light, respectively.

SMILES | Solubility in water (Solubility test in water) [mg/g] | DVS weight gain at an RH of 80% [1] [%] | TGA weight loss (wt %) [2] | Mass change (%) - ref, Desorption ([1]; Cycle 1, objective RH 0.0%) [%] | Mass change (%) - ref, Sorption ([1]; Cycle 1, objective RH 0.0%) [%] | Mass change (%) - ref, Desorption ([1]; Cycle 1, objective RH 10.0%) [%] | Mass change (%) - ref, Sorption ([1]; Cycle 1, objective RH 10.0%) [%] | Mass change (%) - ref, Delay ([1]; Cycle 1, objective RH 10.0%) [%] | Mass change (%) - ref, Desorption ([1]; Cycle 1, objective RH 20.0%) [%] | Mass change (%) - ref, Sorption ([1]; Cycle 1, objective RH 20.0%) [%] | Mass change (%) - ref, Delay ([1]; Cycle 1, objective RH 20.0%) [%] | Mass change (%) - ref, Desorption ([1]; Cycle 1, objective RH 30.0%) [%] | Mass change (%) - ref, Sorption ([1]; Cycle 1, objective RH 30.0%) [%] | Mass change (%) - ref, Delay ([1]; Cycle 1, objective RH 30.0%) [%] | Mass change (%) - ref, Desorption ([1]; Cycle 1, objective RH 40.0%) [%] | Mass change (%) - ref, Sorption ([1]; Cycle 1, objective RH 40.0%) [%] | Mass change (%) - ref, Delay ([1]; Cycle 1, objective RH 40.0%) [%] | Mass change (%) - ref, Desorption ([1]; Cycle 1, objective RH 50.0%) [%] | Mass change (%) - ref, Sorption ([1]; Cycle 1, objective RH 50.0%) [%] | Mass change (%) - ref, Delay ([1]; Cycle 1, objective RH 50.0%) [%] | other results
CCCC(=O)N[C@H]1C(O)O[C@H](COC(=O)CCC)[C@@H](OC(=O)CCC)[C@@H]1O (stereo partly drawn) [API, 2-N-4,6-di-O-tributyryl-D-glucosamine] | 8.12 | 2.440 | 0.966 wt % |  |  |  |  |  |  |  |  |  |  |  |  |  |  |  |  |  | 
CCCC(=O)N[C@H]1C(O)O[C@H](COC(=O)CCC)[C@@H](OC(=O)CCC)[C@@H]1O (stereo partly drawn) [Crystalline Form I, 2-N-4,6-di-O-tributyryl-D-glucosamine] | 9.02 | 1.037 | 0.344 wt % | −0.022 | 0.001 | 0.082 | 0.092 | −0.010 | 0.160 | 0.175 | −0.015 | 0.270 | 0.276 | −0.006 | 0.409 | 0.417 | −0.007 | 0.498 | 0.502 | −0.003 | Solubility in buffer ([3]; buffer pH 1.2, room temperature): 4.08 mg/g; Solubility in buffer ([3]; buffer pH 4.5, room temperature): 6.58 mg/g; Solubility in buffer ([3]; buffer pH 6.8, room temperature): 10.02 mg/g; Whether the crystalline form is changed ([4]; 25° C., 92.5% RH): No; Whether the crystalline form is changed ([4]; 40° C., 75% RH): No; Whether the crystalline form is changed ([4]; 60° C.): No; Whether the crystalline form is changed ([4]; Light): No; Solubility in water (Solubility test in water; listed as crystalline form I): 9.08 mg/g; Mass change (%) - ref, Desorption ([1]; Cycle 1, objective RH 60.0%): 0.627%; Mass change (%) - ref, Sorption ([1]; Cycle 1, objective RH 60.0%): 0.626%; Mass change (%) - ref, Delay ([1]; Cycle 1, objective RH 60.0%): 0.001%; Mass change (%) - ref, Desorption ([1]; Cycle 1, objective RH 70.0%): 0.789%; Mass change (%) - ref, Sorption ([1]; Cycle 1, objective RH 70.0%): 0.800%; Mass change (%) - ref, Delay ([1]; Cycle 1, objective RH 70.0%): −0.011%; Mass change (%) - ref, Desorption ([1]; Cycle 1, objective RH 80.0%): 1.031%; Mass change (%) - ref, Sorption ([1]; Cycle 1, objective RH 80.0%): 1.037%; Mass change (%) - ref, Delay ([1]; Cycle 1, objective RH 80.0%): −0.006%; Mass change (%) - ref, Desorption ([1]; Cycle 1, objective RH 90.0%): 1.662%; Mass change (%) - ref, Sorption ([1]; Cycle 1, objective RH 90.0%): 1.662%
CCCC(=O)N[C@H]1C(O)O[C@H](COC(=O)CCC)[C@@H](OC(=O)CCC)[C@@H]1O (stereo partly drawn) [Crystalline Form II, 2-N-4,6-di-O-tributyryl-D-glucosamine] | 9.08 | 0.869 | None | 0.023 | 0.000 | 0.552 | 0.086 | 0.466 | 0.659 | 0.165 | 0.494 | 0.777 | 0.257 | 0.520 | 0.913 | 0.324 | 0.590 | 0.968 | 0.368 | 0.600 | Solubility in water (Solubility test in water; listed as crystalline form II): 9.02 mg/g; Mass change (%) - ref, Desorption ([1]; Cycle 1, objective RH 60.0%): 1.080%; Mass change (%) - ref, Sorption ([1]; Cycle 1, objective RH 60.0%): 0.457%; Mass change (%) - ref, Delay ([1]; Cycle 1, objective RH 60.0%): 0.623%

Source: patent US20240279265A1, “CRYSTAL FORMS OF GLUCOSAMINE DERIVATIVE, AND PREPARATION METHOD THEREFOR AND USE THEREOF” (RISEN (SUZHOU) PHARMA TECH CO., LTD., priority 2021, published 2024)
